Measurements from PMC6981123 (2020).

Tests used:
[1] = tested on: h-TELO (DNA, G4) AGGGTTAGGGTTAGGGTTAGGG; assay: fluorescence titration of MG emission; conditions: 100 mM K+; 10 mM HEPES, pH 7.4, 25 °C; MG 10 μM, h-TELO 0-6 μM
[2] = tested on: h-TELO (dual-labeled) (DNA, G4) AGGGTTAGGGTTAGGGTTAGGG; assay: FRET melting; conditions: 100 mM K+; 10 mM HEPES, pH 7.4; MG 1.5 μM (3 equiv.), DNA 0.5 μM; Tm 49 to 76 °C
[3] = tested on: h-TELO (DNA, G4) AGGGTTAGGGTTAGGGTTAGGG; assay: ITC; conditions: 100 mM K+; 10 mM HEPES, pH 7.4, 298 K; h-TELO 5 μM in cell

- Kd [1]: 3.2 µM
- ΔTm [2]: 27 °C
- Kd [3]: 4.48 µM
SMILES: CCCCCCCCCCCCCCCCCC(=O)NCc1cn(CCCC(=O)OC[C@H]2O[C@@H](n3cnc4c(=O)[nH]c(N)nc43)[C@@H]3OC(C)(C)O[C@@H]32)nn1
